Series [1] has as its target T1, Amine oxidase [flavin-containing] A (Homo sapiens, UniProt P21397).
T1 sequence (P21397 whole entry): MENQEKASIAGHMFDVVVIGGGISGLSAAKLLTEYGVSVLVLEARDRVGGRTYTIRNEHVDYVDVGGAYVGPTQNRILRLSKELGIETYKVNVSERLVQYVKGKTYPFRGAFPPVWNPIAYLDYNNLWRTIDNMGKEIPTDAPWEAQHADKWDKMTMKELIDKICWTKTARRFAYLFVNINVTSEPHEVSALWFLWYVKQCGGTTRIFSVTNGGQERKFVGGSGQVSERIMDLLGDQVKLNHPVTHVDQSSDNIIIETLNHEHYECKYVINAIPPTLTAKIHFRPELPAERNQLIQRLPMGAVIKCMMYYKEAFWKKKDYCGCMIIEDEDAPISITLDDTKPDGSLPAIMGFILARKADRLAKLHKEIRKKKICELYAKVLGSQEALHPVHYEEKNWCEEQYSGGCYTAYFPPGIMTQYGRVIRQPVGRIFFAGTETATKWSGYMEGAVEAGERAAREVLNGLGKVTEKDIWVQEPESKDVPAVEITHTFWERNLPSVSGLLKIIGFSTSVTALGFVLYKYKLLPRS
Briefly: biochemical.

The target in series [2] is T2, Amine oxidase [flavin-containing] B (Homo sapiens, UniProt P27338).
T2 sequence (P27338 whole entry): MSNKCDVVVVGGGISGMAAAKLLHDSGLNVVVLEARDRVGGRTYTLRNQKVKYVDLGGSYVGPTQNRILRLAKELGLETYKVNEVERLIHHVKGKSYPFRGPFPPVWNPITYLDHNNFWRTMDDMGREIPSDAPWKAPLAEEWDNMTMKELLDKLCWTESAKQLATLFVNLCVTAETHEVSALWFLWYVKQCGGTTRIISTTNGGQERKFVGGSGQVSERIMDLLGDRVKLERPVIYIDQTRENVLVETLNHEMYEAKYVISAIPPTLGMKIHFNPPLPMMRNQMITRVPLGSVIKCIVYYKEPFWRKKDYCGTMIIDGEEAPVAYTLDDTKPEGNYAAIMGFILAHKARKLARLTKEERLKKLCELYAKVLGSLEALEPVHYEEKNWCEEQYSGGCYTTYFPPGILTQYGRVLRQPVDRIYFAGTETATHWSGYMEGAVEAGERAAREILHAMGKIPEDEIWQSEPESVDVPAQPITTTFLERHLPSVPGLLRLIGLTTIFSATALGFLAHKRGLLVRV
Briefly: biochemical. The format is cell-based.

Series [3] addresses T1, Amine oxidase [flavin-containing] A. Briefly: Inhibition of human recombinant MAO-A expressed in baculovirus infected BT1 cells at 100 uM.
Series [4] concerns the target T2, Amine oxidase [flavin-containing] B. Kind of series: Inhibition of human recombinant MAO-B expressed in baculovirus infected BT1 cells at 1 mM. The note with it: 1000 µM.

This is an account of results in ChEMBL document CHEMBL1268994, “Synthesis and molecular modelling studies of prenylated pyrazolines as MAO-B inhibitors” (Bioorg Med Chem Lett, 2010).

In general, IC50 refers to the concentration that inhibits the measured activity by half. A low value points to greater potency in that assay.

With `CC(=O)N1N=C(c2ccc(OCC=C(C)C)cc2O)CC1c1ccc(OCc2ccccc2)cc1` (configuration not stated), the values for the IC50 in series [1] and in series [2] were 316 nM and 174 nM, respectively. As to `CC(C)=CCOc1ccc(C2=NN(C(N)=S)C(c3ccccc3)C2)c(O)c1` (configuration not stated), the “inhibition (INH)” value in series [3] is listed as “Not Active”. The compound further showed an IC50 in series [2] of 52500 nM.

On to `CC(C)=CCOc1ccc(C2=NN(C(N)=S)C(c3ccc(Cl)cc3)C2)c(O)c1` (configuration not stated), for which, in series [3], the “inhibition (INH)” value was “Not Active”. This compound also had an IC50 in series [2] of 832 nM.

Consider `O=C(NCCN1CCOCC1)c1ccc(Cl)cc1` [MOCLOBEMIDE], for which the “inhibition (INH)” value in series [4] is on record as “Not Active”.
